In ChEMBL document CHEMBL1255552, “Synthesis and SAR of 2-aryl-3-aminomethylquinolines as agonists of the bile acid receptor TGR5” (Bioorg Med Chem Lett, 2010):

Key:
Mus musculus [1] = assay: (§1) AUC in mouse at 30 mg/kg, po; assay type: ADME, organism-based, Plasma; set-up: dose 30 mg/kg, route oral; details: in vivo
[2] = Volume of distribution in mouse at 3 mg/kg, iv; assay type: ADME, organism-based; set-up: dose 3 mg/kg, route intravenous; details: in vivo
Mus musculus [3] = assay: (§2) Oral bioavailability in mouse at 30 mg/kg; assay type: ADME, organism-based; details: in vivo
[4] = Cmax in mouse at 30 mg/kg, po; assay type: ADME, organism-based; set-up: dose 30 mg/kg, route oral; details: in vivo
[5] = Half life in mouse at 30 mg/kg, po; assay type: ADME, organism-based; set-up: dose 30 mg/kg, route oral; details: in vivo
[6] = Clearance in mouse at 3 mg/kg, iv; assay type: ADME, organism-based; set-up: dose 3 mg/kg, route intravenous; details: in vivo
[7] = as §1; assay type: ADME, organism-based, Plasma; set-up: dose 30 mg/kg, route oral; details: plasma
[8] = as §2; assay type: ADME, organism-based; details: in vivo

| AUC (Mus musculus [1]) [ng·h/mL] | Vd [2] [L/kg] | F (Mus musculus [3]) [%] | Cmax [4] [ng/mL] | half-life [5] [h] | clearance [6] [mL/min/kg] | AUC [7] [ng·h/mL] | bioavailability [8] [%] | Structure (SMILES) |
| --- | --- | --- | --- | --- | --- | --- | --- | --- |
| 400 | 2.4 | 9 | 370 | 4.4 |  |  |  | Oc1ccc2cc(CNCCc3ccc(Br)cc3)c(-c3ccsc3)nc2c1 |
|  | 1.4 |  | 500 | 7.7 | 29 | 860 | 10 | COc1cc2nc(-c3ccsc3)c(CNCCc3ccc(Br)cc3)cc2cc1O |
